# Columns and labels:
# [1] = DVS mass change (moisture sorption); format: physicochemical
# [2] = Crystallinity of Pattern L upon drying (XRPD); format: physicochemical; settings: dried in a 50° C. oven under −29.5 in Hg for 3 h
# Description: Pattern L was prepared by the slurry method. In this experiment, 205.4 mg of solid commercial-grade plant derived TUDCA was mixed with 2.2 mL of IPAc:MeOH (7.3:2.9 vol.) in a 4 mL vial at 50° C. The mixture was sonicated for 1 h and stirred for 15 min at 400 rpm, after which it was filtered and analyzed by XRPD. […] As this pattern was a possible hydrate, it was placed in a humidity chamber at 55% RH to see if the crystallinity would increase. The yield was 114.6 mg […].
Structure (SMILES),DVS mass change 5-95% RH (wt. %) [1],also measured
"CC(C)NC(C)C.C[C@H](CCC(=O)O)[C@H]1CC[C@H]2[C@@H]3C(=O)C[C@@H]4CC(=O)CC[C@]4(C)[C@H]3CC[C@]12C [Diisopropylamine salt, diisopropylamine salt of 3,7-DKCA]",2.53 wt. %,
"C[C@H](CCC(=O)O)[C@H]1CC[C@H]2[C@@H]3C(=O)C[C@@H]4CC(=O)CC[C@]4(C)[C@H]3CC[C@]12C.NCCN [Ethylenediamine salt, ethylenediamine salt of 3,7-DKCA]",19.60 wt. %,
"CC(CCC(=O)NCCS(=O)(=O)O)C1CCC2C3C(O)CC4CC(O)CCC4(C)C3CCC12C.N=C(N)NCCCC(N)C(=O)O [Pattern 1-A (L-arginine), L-arginine TUDCA]",,DVS mass change 2-80% RH (wt. %) ([1]; 2-80% RH): 2.91 wt. %
"C[C@H](CCC(=O)NCCS(=O)(=O)O)[C@H]1CC[C@H]2[C@@H]3[C@@H](O)C[C@@H]4C[C@H](O)CC[C@]4(C)[C@H]3CC[C@]12C [Pattern A, Tauroursodeoxycholic acid]",,DVS mass change 2-95% RH (wt. %) ([1]; 2-95% RH): 0.96 wt. %
"C[C@H](CCC(=O)NCCS(=O)(=O)O)[C@H]1CC[C@H]2[C@@H]3[C@@H](O)C[C@@H]4C[C@H](O)CC[C@]4(C)[C@H]3CC[C@]12C [Pattern L, Tauroursodeoxycholic acid]",,Crystallinity upon drying [2]: decrease
"CC(C)(C)N.C[C@H](CCC(=O)O)[C@H]1CC[C@H]2[C@@H]3C(=O)C[C@@H]4CC(=O)CC[C@]4(C)[C@H]3CC[C@]12C [tert-Butylamine salt, tert-butylamine salt of 3,7-DKCA]",10.89 wt. %,

# Reference: patent publication US20250188113A1, “HIGH PURITY NON-ANIMAL DERIVED TUDCA” (SANDHILL ONE, LLC, priority 2021, published 2025)
